22 compounds from ChEMBL document CHEMBL1156829 (Proc Natl Acad Sci U S A, 2008) can be followed below.

A value given as a limit tells only on which side of the number the result lay.

Data set [1] can be described thus: NOVARTIS: Cytotoxicity against human hepatocellular carcinoma cell line (Huh7). In kind it is toxicity, cell-based, Huh-7. As to conditions: Huh7 cells (hepatocellular carcinoma cell line).
For data set [2], the system named is Plasmodium falciparum. As to the kind of experiment: NOVARTIS: Inhibition of Plasmodium falciparum 3D7 (drug-susceptible) proliferation in erythrocyte-based infection assay. Type of data set: functional, organism-based. As to conditions: Plasmodium falciparum, 3D7.
In data set [3] the test system is Plasmodium falciparum. As to the kind of experiment: NOVARTIS: Inhibition of Plasmodium falciparum W2 (drug-resistant) proliferation in erythrocyte-based infection assay. In kind it is functional, organism-based. As to conditions: Plasmodium falciparum, W2; read-out: EC50.

A word on the CC50: it is the concentration giving 50% cytotoxicity. A low value points to greater toxicity to the cells. As usually defined, the EC50 is the concentration that produces a half-maximal response. `c1ccc(/C2=N/c3ccccc3/N=C(/c3ccccc3)c3ccccc32)cc1`: in data set [1], the cytotoxic concentration (CC50) is > 100000 nM. Besides, the EC50 in data set [2] turned out to be 678 nM; in data set [3], 770 nM.

As to `Cc1cc(Nc2ccc(Cl)cc2)nc(NCc2ccccc2)n1`, the CC50 in data set [1] is 19600 nM. In addition, the results for the concentration giving a half-maximal response (EC50) in data set [2] and in data set [3] were 91.9 nM and 150 nM, respectively.

`COc1ccc2nc(C)cc(Nc3ccc(Oc4ccc5ccccc5c4Cl)c(Cl)c3)c2c1` showed a CC50 in data set [1] of 64100 nM. For the same compound, the concentration giving a half-maximal response (EC50) in data set [2] came out at 100 nM; in data set [3], 491 nM.

As for `CN(C)CCCNc1ccnc2cc(Cl)ccc12`, the cytotoxic concentration (CC50) in data set [1] is > 10000 nM. Moreover, the concentration for a half-maximal effect (EC50) in data set [2] was determined as 76.9 nM; in data set [3], 76.3 nM.

For the compound `CCOc1ccc(C(=O)C[N+]2=C(C)c3ccc(C)n3CC2)cc1`, in data set [1], the CC50 was > 100000 nM. The concentration for a half-maximal effect (EC50) in data set [2] is 1630 nM; in data set [3], 767 nM.

Regarding `Cc1cnc(NC(=O)Nc2ccc(-c3ccc(NC(=O)Nc4ncc(C)s4)c(C)c3)cc2C)s1`, the half-maximal cytotoxic concentration (CC50) in data set [1] was > 10000 nM. Moreover, the EC50 in data set [2] is 34.1 nM; in data set [3], 76.7 nM.

`COc1ccc(N2CCN(C(CNC(=O)CC(C)C)c3ccco3)CC2)cc1` (stereo unspecified): the CC50 in data set [1] was > 100000 nM. In addition, the EC50 amounted to 6690 nM in data set [2] and 767 nM in data set [3].

Take `CC(C)CN(C(C)C(=O)NC(CN1CCCC1)c1ccccc1)S(=O)(=O)Cc1ccccc1` (stereo unspecified): in data set [1], the cytotoxic concentration (CC50) is > 10000 nM. Besides, the EC50 was found to be 60.2 nM in data set [2] and 76.7 nM in data set [3].

On to `CN(C)c1ccc(NC=CC(=O)C(C)(C)C)cc1`, for which the midpoint of cytotoxicity in data set [1], the CC50, lay at 36900 nM. Further, the EC50 in data set [2] was determined as 1050 nM; in data set [3], 282 nM.

On to `COc1ccc(NC2=C(c3ccc(C(F)(F)F)cc3)C(=O)c3ccccc32)cc1`, for which the CC50 in data set [1] was > 100000 nM. Moreover, the concentration for a half-maximal effect (EC50) in data set [2] is 339 nM; in data set [3], 772 nM.

For `CCN(CC)c1ccc(NC(=O)c2cccs2)cc1`, in data set [1], the cytotoxic concentration (CC50) is > 100000 nM. Moreover, the figures for the concentration giving a half-maximal response (EC50) in data set [2] and in data set [3] were 414 nM and 770 nM, respectively.

In data set [1], `C[n+]1c2n(c3ccccc31)N=C(c1ccccc1)CS2` yielded a CC50 of 45100 nM. The EC50 is 454 nM in data set [2] and 347 nM in data set [3].

`N#Cc1c(N)nc2sc(C(=O)Nc3ccc(Br)cc3)c(N)c2c1-c1ccccc1`: the CC50 in data set [1] was > 100000 nM. Besides, the EC50 is 8210 nM in data set [2] and 763 nM in data set [3].

The compound `Cc1cc(C)nc(NNc2c([N+](=O)[O-])cccc2[N+](=O)[O-])n1` showed a 50% cytotoxic concentration (CC50) in data set [1] of 22000 nM. Besides, the EC50 in data set [2] turned out to be 1800 nM; in data set [3], 167 nM.

On to `CCC(=O)NNc1cc(N2CCCC2)nc(N2CCCC2)n1`, for which the cytotoxic concentration (CC50) in data set [1] is > 100000 nM. The values for the 50% effective concentration (EC50) in data set [2] and in data set [3] were 790 nM and 760 nM, respectively.

Turning to `COc1ccc(Nc2nc(NN=Cc3cc([N+](=O)[O-])ccc3OC)nc(Nc3ccc([N+](=O)[O-])cc3)n2)cc1`, in data set [1], the CC50 is > 100000 nM. For the same compound, the figures for the EC50 in data set [2] and in data set [3] were 728 nM and 762 nM, respectively.

Turning to `COc1ccc2cc(CNCCc3cccc(Cl)c3)c(N3CCC(=O)N(CCN(C)C)CC3)nc2c1`, the CC50 in data set [1] is > 10000 nM. Also, the EC50 in data set [2] was > 1250 nM; in data set [3] it was 77.2 nM.

Turning to `COc1ccc(OC)c(-c2ccc(O)c(CNCCc3ccccc3)c2)c1`, the 50% cytotoxic concentration (CC50) in data set [1] was > 10000 nM. Besides, the figures for the half-maximal effective concentration (EC50) in data set [2] and in data set [3] were 657 nM and 77.1 nM, respectively.

In data set [1], `COc1ccc(S(=O)(=O)N=C2C=C(Nc3ccccc3OC)C(=O)c3ccccc32)cc1` returned a CC50 of 20100 nM. Moreover, the EC50 in data set [2] came to 338 nM; in data set [3], 154 nM.

As to `CCc1ccc(Nc2cc(C)nc3nc(C)nn23)cc1`, in data set [1], the CC50 is > 100000 nM. For the same compound, the EC50 was 574 nM in data set [2] and 768 nM in data set [3].

For `Cc1ccn2c(NC(C)(C)CC(C)(C)C)c(-c3ccccc3OC(=O)C(C)(C)CCl)nc2c1`, the CC50 in data set [1] is > 10000 nM. Further, the EC50 in data set [2] was 699 nM; in data set [3] it was 76.3 nM.

In the case of `c1ccc(Cn2c(N=Nc3c(Nc4ccccc4)ccc4ccccc34)nc3ccccc32)cc1`, half-maximal cytotoxicity in data set [1] (CC50) was put at 88000 nM. The concentration for a half-maximal effect (EC50) in data set [2] came out at 2730 nM; in data set [3] it was 669 nM.
